Data taken from ChEMBL document CHEMBL4699440, “Comprehensive review on the anti-bacterial activity of 1,2,3-triazole hybrids” (Eur J Med Chem, 2019).
≈ marks a conversion by molar mass, not a printed value.

Tests used:
[1] = system: Bacillus cereus; experiment: Antibacterial activity against Bacillus cereus; assay type: functional
[2] = system: KB; experiment: Cytotoxicity against human KB cells; assay type: cell-based; conditions: Homo sapiens, KB
[3] = system: Staphylococcus aureus; experiment: Antibacterial activity against Staphylococcus aureus; assay type: functional
[4] = system: Aspergillus niger; experiment: Antibacterial activity against Aspergillus niger ATCC 9029 incubated for 24 hrs by broth microdilution method; assay type: functional
[5] = system: Escherichia coli; experiment: Antibacterial activity against Escherichia coli ATCC 25922 incubated for 24 hrs by broth microdilution method; assay type: functional
[6] = system: Staphylococcus aureus; experiment: Antibacterial activity against Staphylococcus aureus ATCC 12598 incubated for 24 hrs by broth microdilution method; assay type: functional
[7] = system: Bacillus subtilis; experiment: Antibacterial activity against Bacillus subtilis ATCC 6051 incubated for 24 hrs by broth microdilution method; assay type: functional
[8] = system: Pseudomonas aeruginosa; experiment: Antibacterial activity against Pseudomonas aeruginosa ATCC 25619 incubated for 24 hrs by broth microdilution method; assay type: functional
[9] = system: Candida albicans; experiment: Antifungal activity against Candida albicans ATCC 2091 incubated for 24 hrs by broth microdilution method; assay type: functional
[10] = system: Staphylococcus aureus; experiment: Antibacterial activity against Staphylococcus aureus assessed as inhibition zone at 1 mg/ml measured after overnight incubation by disc diffusion method; assay type: functional; conditions: read-out: IZ
[11] = system: Bacillus subtilis; experiment: Antibacterial activity against Bacillus subtilis assessed as inhibition zone at 1 mg/ml measured after overnight incubation by disc diffusion method; assay type: functional; conditions: read-out: IZ
[12] = system: Pseudomonas aeruginosa; experiment: Antibacterial activity against Pseudomonas aeruginosa assessed as inhibition zone at 1 mg/ml measured after overnight incubation by disc diffusion method; assay type: functional; conditions: read-out: IZ
[13] = system: Escherichia coli; experiment: Antibacterial activity against Escherichia coli assessed as inhibition zone at 1 mg/ml measured after overnight incubation by disc diffusion method; assay type: functional; conditions: read-out: IZ

Compound	MIC [1] [µg/mL]	MIC [3] [µg/mL]	MIC [4] [µg/mL]	MIC [5] [µg/mL]	MIC [6] [µg/mL]	MIC [7] [µg/mL]	MIC [8] [µg/mL]	MIC [9] [µg/mL]	IC50 [2] [µg/mL]	zone of inhibition at 1000 µg/mL [10] [mm]	zone of inhibition at 1000 µg/mL [11] [mm]	zone of inhibition at 1000 µg/mL [12] [mm]	zone of inhibition at 1000 µg/mL [13] [mm]
CC(C)C[C@H](NC(=O)CNC(=O)C(C)(C)NC(=O)[C@@H](NC(=O)C(C)(C)NC(=O)[C@H](CCC(N)=O)NC(=O)[C@H](C)NC(=O)C(C)(C)NC(=O)[C@H](C)NC(=O)C(C)(C)NC(=O)[C@@H]1CCN(C(=O)C(C)(C)n2cc(-c3ccc(-c4ccccc4)cc3)nn2)C1)C(C)C)C(=O)NC(C)(C)C(=O)N1CCC[C@@H]1C(=O)N[C@H](C(=O)NC(C)(C)C(=O)NC(C)(C)C(=O)N[C@@H](CCC(N)=O)C(=O)N[C@@H](CCC(N)=O)C(=O)N[C@H](CO)Cc1ccccc1)C(C)C	1.56 (≈ 0.734 µM)	1.56 (≈ 0.734 µM)							2.9 (≈ 1.36 µM)				
COc1ccccc1-n1cc(CNc2ccccc2-c2nnc(-c3ccccc3)o2)nn1										2.5	2.5	2.5	2.5
CC(C)C[C@H](NC(=O)CNC(=O)C(C)(C)NC(=O)[C@@H](NC(=O)C(C)(C)NC(=O)[C@H](CCC(N)=O)NC(=O)[C@H](C)NC(=O)C(C)(C)NC(=O)[C@H](C)NC(=O)C(C)(C)NC(=O)[C@@H]1CCN(C(=O)C(C)(C)n2cc(-c3cc(F)cc(F)c3)nn2)C1)C(C)C)C(=O)NC(C)(C)C(=O)N1CCC[C@@H]1C(=O)N[C@H](C(=O)NC(C)(C)C(=O)NC(C)(C)C(=O)N[C@@H](CCC(N)=O)C(=O)N[C@@H](CCC(N)=O)C(=O)N[C@H](CO)Cc1ccccc1)C(C)C	1.56 (≈ 0.748 µM)	1.56 (≈ 0.748 µM)							2.9 (≈ 1.39 µM)				
c1ccc(-c2nnc(-c3ccccc3NCc3cn(C4CCCCC4)nn3)o2)cc1										2.5	2.5	2.5	2.5
CC(C)C[C@H](NC(=O)CNC(=O)C(C)(C)NC(=O)[C@@H](NC(=O)C(C)(C)NC(=O)[C@H](CCC(N)=O)NC(=O)[C@H](C)NC(=O)C(C)(C)NC(=O)[C@H](C)NC(=O)C(C)(C)NC(=O)[C@@H]1CCN(C(=O)C(C)(C)n2cc(-c3ccc(OC(F)(F)F)c(F)c3)nn2)C1)C(C)C)C(=O)NC(C)(C)C(=O)N1CCC[C@@H]1C(=O)N[C@H](C(=O)NC(C)(C)C(=O)NC(C)(C)C(=O)N[C@@H](CCC(N)=O)C(=O)N[C@@H](CCC(N)=O)C(=O)N[C@H](CO)Cc1ccccc1)C(C)C	1.56 (≈ 0.725 µM)	1.56 (≈ 0.725 µM)							2.9 (≈ 1.35 µM)				
Cc1ccccc1-n1cc(CNc2ccccc2-c2nnc(-c3ccccc3)o2)nn1										2.5	2.5	2.5	2.5
CC(C)C[C@H](NC(=O)CNC(=O)C(C)(C)NC(=O)[C@@H](NC(=O)C(C)(C)NC(=O)[C@H](CCC(N)=O)NC(=O)[C@H](C)NC(=O)C(C)(C)NC(=O)[C@H](C)NC(=O)C(C)(C)NC(=O)[C@@H]1CCN(C(=O)C(C)(C)n2cc(-c3cc(C(F)(F)F)cc(C(F)(F)F)c3)nn2)C1)C(C)C)C(=O)NC(C)(C)C(=O)N1CCC[C@@H]1C(=O)N[C@H](C(=O)NC(C)(C)C(=O)NC(C)(C)C(=O)N[C@@H](CCC(N)=O)C(=O)N[C@@H](CCC(N)=O)C(=O)N[C@H](CO)Cc1ccccc1)C(C)C	1.56 (≈ 0.714 µM)	1.56 (≈ 0.714 µM)							2.9 (≈ 1.33 µM)				
Clc1cccc(-n2cc(CNc3ccccc3-c3nnc(-c4ccccc4)o3)nn2)c1										2.5	2.5	2.5	2.5
CCOC(=O)c1c(C)nnn1Cc1cc(=O)oc2ccc(OC)cc12			0.2 (≈ 0.583 µM)	0.2 (≈ 0.583 µM)	0.2 (≈ 0.583 µM)	25 (≈ 72.8 µM)	25 (≈ 72.8 µM)	0.2 (≈ 0.583 µM)					

Further lines, with some results ahead:

MIC [1] [µg/mL]	MIC [3] [µg/mL]	MIC [4] [µg/mL]	MIC [5] [µg/mL]	MIC [6] [µg/mL]	MIC [7] [µg/mL]	MIC [8] [µg/mL]	MIC [9] [µg/mL]	Compound	IC50 [2] [µg/mL]	zone of inhibition at 1000 µg/mL [10] [mm]	zone of inhibition at 1000 µg/mL [11] [mm]	zone of inhibition at 1000 µg/mL [12] [mm]	zone of inhibition at 1000 µg/mL [13] [mm]
		0.2 (≈ 0.611 µM)	0.4 (≈ 1.22 µM)	0.2 (≈ 0.611 µM)	25 (≈ 76.4 µM)	25 (≈ 76.4 µM)	0.2 (≈ 0.611 µM)	CCOC(=O)c1c(C)nnn1Cc1cc(=O)oc2ccc(C)cc12					
		0.2 (≈ 0.634 µM)	0.2 (≈ 0.634 µM)	0.2 (≈ 0.634 µM)	25 (≈ 79.3 µM)	25 (≈ 79.3 µM)	0.2 (≈ 0.634 µM)	COc1ccc2oc(=O)cc(Cn3nnc(C)c3C(=O)O)c2c1					
		0.2 (≈ 0.668 µM)	0.4 (≈ 1.34 µM)	0.2 (≈ 0.668 µM)	25 (≈ 83.5 µM)	25 (≈ 83.5 µM)	0.2 (≈ 0.668 µM)	Cc1ccc2oc(=O)cc(Cn3nnc(C)c3C(=O)O)c2c1					
		0.2 (≈ 0.607 µM)	0.2 (≈ 0.607 µM)	0.2 (≈ 0.607 µM)	25 (≈ 75.9 µM)	25 (≈ 75.9 µM)	0.2 (≈ 0.607 µM)	Cc1nnn(Cc2cc(=O)oc3c4c(ccc23)OCO4)c1C(=O)O					
		0.2 (≈ 0.611 µM)	0.2 (≈ 0.611 µM)	0.2 (≈ 0.611 µM)	25 (≈ 76.4 µM)	25 (≈ 76.4 µM)	0.2 (≈ 0.611 µM)	CCOC(=O)c1c(C)nnn1Cc1cc(=O)oc2cc(C)ccc12					
		0.2 (≈ 0.56 µM)	0.2 (≈ 0.56 µM)	0.2 (≈ 0.56 µM)	25 (≈ 70 µM)	25 (≈ 70 µM)	0.2 (≈ 0.56 µM)	CCOC(=O)c1c(C)nnn1Cc1cc(=O)oc2c3c(ccc12)OCO3					
		0.2 (≈ 0.607 µM)	0.2 (≈ 0.607 µM)	0.2 (≈ 0.607 µM)	25 (≈ 75.9 µM)	25 (≈ 75.9 µM)	0.2 (≈ 0.607 µM)	Cc1nnn(Cc2cc(=O)oc3ccc4c(c23)OCO4)c1C(=O)O					
